Among the data in ChEMBL document CHEMBL2385069, “Thiourea derivatives incorporating a hippuric acid moiety: synthesis and evaluation of antibacterial and antifungal activities” (2013) are zone of inhibition, MIC and Ratio values, retold here.

Broadly, the MIC is the lowest concentration that inhibits growth of the organism. Read a low MIC as greater potency.

≈ marks a conversion by molar mass, not a printed value.

Assay [1] relates to Klebsiella pneumoniae. The experiment in a line: Antibacterial activity against Klebsiella pneumoniae ATCC 13883 assessed as diameter of inhibition zone at 1 mg/ml after 24 hrs by agar well diffusion method. The class given is functional. To be noted: ATCC 13883, 24 h, read-out: DIZ. Background: A growth-free zone around the sample is the usual read-out of agar diffusion tests.

Assay [2] concerns Priestia megaterium. The experiment in a line: Antibacterial activity against Bacillus megaterium ATCC 9885 after 24 hrs by two fold serial dilution technique. The class given is functional. The conditions noted are these: ATCC 9885, 24 h.
For assay [3], the system named is Saccharomyces cerevisiae. The experiment in a line: Antifungal activity against Saccharomyces cerevisiae assessed as diameter of inhibition zone at 1 mg/ml after 24 hrs by agar well diffusion method. The class given is functional. The conditions noted are these: read-out: DIZ.
The subject of assay [4] is Priestia megaterium. Briefly: Antibacterial activity against Bacillus megaterium ATCC 9885 assessed as diameter of inhibition zone at 1 mg/ml after 24 hrs by agar well diffusion method. The class given is functional. To be noted: ATCC 9885, 24 h, read-out: DIZ.
Assay [5] concerns Micrococcus luteus. Briefly: Antibacterial activity against Sarcina lutea after 24 hrs by two fold serial dilution technique. Type of assay: functional.
For assay [6], the system named is Proteus vulgaris. Briefly: Antibacterial activity against Proteus vulgaris assessed as diameter of inhibition zone at 1 mg/ml after 24 hrs by agar well diffusion method. The class given is functional. The conditions noted are these: read-out: DIZ.
For assay [7], the system named is Candida albicans. Briefly: Antifungal activity against Candida albicans NRRLY-477 assessed as diameter of inhibition zone at 1 mg/ml after 24 hrs by agar well diffusion method. To be noted: NRRLY-477, 24 h, read-out: DIZ. The class given is functional.
Assay [8] concerns Micrococcus luteus. Briefly: Antibacterial activity against Sarcina lutea assessed as diameter of inhibition zone at 1 mg/ml after 24 hrs by agar well diffusion method. The class given is functional. To be noted: read-out: DIZ.
The test system of assay [9] is Staphylococcus aureus. Briefly: Antibacterial activity against Staphylococcus aureus ATCC 29213 assessed as diameter of inhibition zone at 1 mg/ml after 24 hrs by agar well diffusion method. Type of assay: functional. The conditions noted are these: ATCC 29213, 24 h, read-out: DIZ.
Assay [10] relates to Pseudomonas aeruginosa. The experiment in a line: Antibacterial activity against Pseudomonas aeruginosa ATCC 27953 assessed as diameter of inhibition zone at 1 mg/ml after 24 hrs by agar well diffusion method. The conditions noted are these: ATCC 27953, 24 h, read-out: DIZ. Type of assay: functional.
In assay [11] the test system is Staphylococcus aureus. The experiment in a line: Antibacterial activity against Staphylococcus aureus ATCC 29213 after 24 hrs by two fold serial dilution technique. The class given is functional. To be noted: ATCC 29213, 24 h.
For assay [12], the system named is Escherichia coli. Briefly: Antibacterial activity against Escherichia coli ATCC 25922 after 24 hrs by two fold serial dilution technique. Type of assay: functional. The conditions noted are these: ATCC 25922, 24 h.
For assay [13], the system named is Candida albicans. The experiment in a line: Antifungal activity against Candida albicans NRRLY-477 after 24 hrs by two fold serial dilution technique. The conditions noted are these: NRRLY-477, 24 h. The class given is functional.
Assay [14] has as its system Proteus vulgaris. The experiment in a line: Antibacterial activity against Proteus vulgaris after 24 hrs by two fold serial dilution technique. Type of assay: functional.
Assay [15] relates to Saccharomyces cerevisiae. Briefly: Antifungal activity against Saccharomyces cerevisiae after 24 hrs by two fold serial dilution technique. Type of assay: functional.
Assay [16] deals with Bacillus subtilis. The experiment in a line: Antibacterial activity against Bacillus subtilis ATCC 6633 assessed as diameter of inhibition zone at 1 mg/ml after 24 hrs by agar well diffusion method. The class given is functional. To be noted: ATCC 6633, 24 h, read-out: DIZ.
The test system of assay [17] is Escherichia coli. Briefly: Antibacterial activity against Escherichia coli ATCC 25922 assessed as diameter of inhibition zone at 1 mg/ml after 24 hrs by agar well diffusion method. The class given is functional. To be noted: ATCC 25922, 24 h, read-out: DIZ.
The test system of assay [18] is Klebsiella pneumoniae. Briefly: Antibacterial activity against Klebsiella pneumoniae ATCC 13883 after 24 hrs by two fold serial dilution technique. The conditions noted are these: ATCC 13883, 24 h. The class given is functional.
Assay [19] deals with Bacillus subtilis. Briefly: Ratio of Ciprofloxacin MIC to compound MIC for Bacillus subtilis ATCC 6633. Type of assay: functional.
In assay [20] the test system is Bacillus subtilis. Briefly: Antibacterial activity against Bacillus subtilis ATCC 6633 after 24 hrs by two fold serial dilution technique. Type of assay: functional. To be noted: ATCC 6633, 24 h.
Assay [21] deals with Candida albicans. Briefly: Ratio of ketoconazole MIC to compound MIC for Candida albicans NRRLY-477. Type of assay: functional.
For assay [22], the system named is Pseudomonas aeruginosa. Briefly: Antibacterial activity against Pseudomonas aeruginosa ATCC 27953 after 24 hrs by two fold serial dilution technique. The class given is functional. To be noted: ATCC 27953, 24 h.
Assay [23] has as its system Staphylococcus aureus. Briefly: Ratio of Ciprofloxacin MIC to compound MIC for Staphylococcus aureus ATCC 29213. The class given is functional.
Assay [24] has as its system Pseudomonas aeruginosa. Briefly: Ratio of Ciprofloxacin MIC to compound MIC for Pseudomonas aeruginosa ATCC 27953. Type of assay: functional.
For assay [25], the system named is Klebsiella pneumoniae. Briefly: microbe, parasite or virus in culture. The conditions noted are these: ATCC 13883, 24 h, read-out: DIZ.
Description: Antibacterial activity against Klebsiella pneumoniae ATCC 13883 assessed as diameter of inhibition zone at 0.5 mg/ml after 24 hrs by agar well diffusion method
Assay [26] deals with Staphylococcus aureus. The experiment in a line: microbe, parasite or virus in culture. The conditions noted are these: ATCC 29213, 24 h, read-out: DIZ.
Description: Antibacterial activity against Staphylococcus aureus ATCC 29213 assessed as diameter of inhibition zone at 0.5 mg/ml after 24 hrs by agar well diffusion method
Assay [27] deals with Proteus vulgaris. Briefly: Antibacterial activity against Proteus vulgaris assessed as diameter of inhibition zone at 0.5 mg/ml after 24 hrs by agar well diffusion method. Type of assay: functional. To be noted: read-out: DIZ.
Assay [28] has as its system Pseudomonas aeruginosa. The experiment in a line: microbe, parasite or virus in culture. The conditions noted are these: ATCC 27953, 24 h, read-out: DIZ.
Description: Antibacterial activity against Pseudomonas aeruginosa ATCC 27953 assessed as diameter of inhibition zone at 0.5 mg/ml after 24 hrs by agar well diffusion method
Assay [29] concerns Micrococcus luteus. The experiment in a line: Antibacterial activity against Sarcina lutea assessed as diameter of inhibition zone at 0.5 mg/ml after 24 hrs by agar well diffusion method. Type of assay: functional. To be noted: read-out: DIZ.
The subject of assay [30] is Priestia megaterium. Briefly: Antibacterial activity against Bacillus megaterium ATCC 9885 assessed as diameter of inhibition zone at 0.5 mg/ml after 24 hrs by agar well diffusion method. The class given is functional. To be noted: ATCC 9885, 24 h, read-out: DIZ.
Assay [31] has as its system Bacillus subtilis. The experiment in a line: microbe, parasite or virus in culture. To be noted: ATCC 6633, 24 h, read-out: DIZ.
Description: Antibacterial activity against Bacillus subtilis ATCC 6633 assessed as diameter of inhibition zone at 0.5 mg/ml after 24 hrs by agar well diffusion method
Assay [32] concerns Candida albicans. Briefly: Antifungal activity against Candida albicans NRRLY-477 assessed as diameter of inhibition zone at 0.5 mg/ml after 24 hrs by agar well diffusion method. To be noted: NRRLY-477, 24 h, read-out: DIZ. The class given is functional.
Assay [33] relates to Saccharomyces cerevisiae. The experiment in a line: Antifungal activity against Saccharomyces cerevisiae assessed as diameter of inhibition zone at 0.5 mg/ml after 24 hrs by agar well diffusion method. Type of assay: functional. The conditions noted are these: read-out: DIZ.

`O=C(O)CNC(=O)c1ccc(NC(=S)Nc2cccc(Br)c2)cc1`: the zone of inhibition at 1000 µg/mL in the assay on Klebsiella pneumoniae [1] is 30 mm; in the assay on Saccharomyces cerevisiae [3], 28 mm; in the assay with Priestia megaterium [4], 32 mm; in the assay on Proteus vulgaris [6], 24 mm; with Candida albicans [7], 30 mm; in the assay on Micrococcus luteus [8], 20 mm. Further, the zone of inhibition at 1000 µg/mL with Staphylococcus aureus [9] is 31 mm; in the assay with Pseudomonas aeruginosa [10] it was 22 mm; in the assay on Bacillus subtilis [16], 30 mm; with Escherichia coli [17], 27 mm. For the same molecule, the MIC turned out to be 3.12 µg/mL (≈ 7.64 µM) in the assay on Priestia megaterium [2]; 12.5 µg/mL (≈ 30.6 µM) with Micrococcus luteus [5]; 6.25 µg/mL (≈ 15.3 µM) against Staphylococcus aureus [11]; 6.25 µg/mL (≈ 15.3 µM) against Escherichia coli [12]; 3.12 µg/mL (≈ 7.64 µM) against Candida albicans [13]; 6.25 µg/mL (≈ 15.3 µM) in the assay on Proteus vulgaris [14]. For the same molecule, the minimum inhibitory concentration (MIC) is 6.25 µg/mL (≈ 15.3 µM) against Saccharomyces cerevisiae [15], 6.25 µg/mL (≈ 15.3 µM) against Klebsiella pneumoniae [18], 3.12 µg/mL (≈ 7.64 µM) against Bacillus subtilis [20] and 12.5 µg/mL (≈ 30.6 µM) in the assay on Pseudomonas aeruginosa [22]. The Ratio in the assay on Bacillus subtilis [19] and in the assay on Candida albicans [21] was 2 each time.
As to `O=C(O)CNC(=O)c1ccc(NC(=S)Nc2ccc(S(=O)(=O)Nc3ncccn3)cc2)cc1`, the Ratio with Staphylococcus aureus [23] worked out at 2; in the assay with Pseudomonas aeruginosa [24], 4. The zone of inhibition at 1000 µg/mL with Klebsiella pneumoniae [1] turned out to be 17 mm; in the assay on Saccharomyces cerevisiae [3], 30 mm; in the assay with Priestia megaterium [4], 27 mm; in the assay with Proteus vulgaris [6], 21 mm; in the assay with Candida albicans [7], 25 mm; with Micrococcus luteus [8], 25 mm. In addition, the zone of inhibition at 1000 µg/mL in the assay on Staphylococcus aureus [9] was determined as 32 mm; in the assay on Pseudomonas aeruginosa [10] it was 34 mm; with Bacillus subtilis [16], 26 mm; in the assay with Escherichia coli [17], 32 mm. Further, the minimal inhibitory concentration (MIC) in the assay with Priestia megaterium [2] was 12.5 µg/mL (≈ 25.7 µM); against Micrococcus luteus [5] it was 12.5 µg/mL (≈ 25.7 µM); against Staphylococcus aureus [11], 3.12 µg/mL (≈ 6.41 µM); in the assay with Escherichia coli [12] it was 6.25 µg/mL (≈ 12.8 µM); in the assay with Candida albicans [13], 12.5 µg/mL (≈ 25.7 µM); against Proteus vulgaris [14] it was 12.5 µg/mL (≈ 25.7 µM). Moreover, the MIC with Saccharomyces cerevisiae [15] was found to be 3.12 µg/mL (≈ 6.41 µM); in the assay with Klebsiella pneumoniae [18] it was 12.5 µg/mL (≈ 25.7 µM); against Bacillus subtilis [20] it was 12.5 µg/mL (≈ 25.7 µM); in the assay on Pseudomonas aeruginosa [22], 3.12 µg/mL (≈ 6.41 µM).
In the case of `O=C(O)c1cn(C2CC2)c2cc(N3CCNCC3)c(F)cc2c1=O` [CIPROFLOXACIN], the zone of inhibition at 500 µg/mL in the assay with Klebsiella pneumoniae [25] is 25 mm; in the assay on Staphylococcus aureus [26], 20 mm; with Proteus vulgaris [27], 23 mm; with Pseudomonas aeruginosa [28], 24 mm; in the assay with Micrococcus luteus [29], 20 mm; in the assay with Priestia megaterium [30] it was 24 mm. In addition, the zone of inhibition at 500 µg/mL with Bacillus subtilis [31] came out at 22 mm. The MIC in the assay on Priestia megaterium [2] worked out at 6.25 µg/mL (≈ 18.9 µM); against Micrococcus luteus [5], 12.5 µg/mL (≈ 37.7 µM); with Escherichia coli [12] it was 12.5 µg/mL (≈ 37.7 µM); in the assay with Proteus vulgaris [14], 12.5 µg/mL (≈ 37.7 µM); in the assay with Klebsiella pneumoniae [18] it was 12.5 µg/mL (≈ 37.7 µM); in the assay on Bacillus subtilis [20] it was 6.25 µg/mL (≈ 18.9 µM).
Take `CC(=O)N1CCN(c2ccc(OCC3COC(Cn4ccnc4)(c4ccc(Cl)cc4Cl)O3)cc2)CC1` (stereo unspecified) [KETOCONAZOLE]: the zone of inhibition at 500 µg/mL was determined as 22 mm with Candida albicans [32] and 23 mm in the assay on Saccharomyces cerevisiae [33]. In addition, the MIC against Candida albicans [13] came out at 6.25 µg/mL (≈ 11.8 µM); in the assay on Saccharomyces cerevisiae [15], 3.12 µg/mL (≈ 5.87 µM).
